Patent US7115597B2, “Tyrosine kinase inhibitors” (Merck & Co., Inc., priority 2000, dated 2006)
Structures can show the parent of a compound that is named as a salt.

melting point	Structure (SMILES)
285 to 287 °C (dec.)	N#Cc1cnc(Nc2cc(N3CCN(CC(=O)O)CC3)ncn2)s1 (as salt: TFA) [Compound 26-3, (4-{6-[(5-cyano-1,3-thiazol-2-yl)amino]pyrimidin-4-yl}piperazin-1-yl)acetic acid]
> 250 °C	c1ccc(-c2cnc(Nc3ccncn3)s2)cc1 [Compound 1-3, (5-Phenyl-thiazol-2-yl)-pyrimidin-4-yl-amine]
